Test results from US8772502B2, “Alkylsulfinyl-substituted thiazolide compounds” (Romark Laboratories, L.C., priority 2010, dated 2014).
Where “and” joins values, the source holds several entries; their conditions need not be identical. Equal values may be shown once. Entries after “also recorded” stand apart in the source; their conditions may differ. Read-outs that look alike come from different tables or passages of the source.

What was measured:
[1] = tested on: HCV replicon cell line, AVA5 (sub-genomic CON1, genotype 1b); experiment: Primary HCV replicon assay, antiviral activity (intracellular HCV RNA); assay type: cell-based
Experimental: (§1) Antiviral activity of test compounds was assessed in a 3-day assay using the stably-expressing HCV replicon cell line, AVA5 (sub-genomic CON1, genotype 1b) [Korba, B. E. et al. Antiviral Res. 77, 56-63 (2008); Blight et al., Science 290, 1972-1974 (2000)] maintained as sub-confluent cultures on 96-well plates as previously described [Okuse et al., Antiviral Research 65, 23-34 (2005)]. Antiviral activity was determined by blot hybridization analysis of intracellular HCV RNA (normalized to the level of cellular B-actin RNA in each culture sample) and cytotoxicity was assessed by neutral red dye uptake after 3 days of treatment. Additional studies were performed using Huh7 cells containing another HCV replicon, H/FL-Neo, a genotype 1a full length construct [Blight et al., J. Virol. 77, 3181-3190 (2003)]. For studies involving human serum, standard culture medium (which contains 10% fetal bovine serum) and assay conditions were maintained.
(§2) EC50, EC90 and CC50 values (±standard deviations [S.D.]) were calculated by linear regression analysis using data combined from all treated cultures (Korba, B. E. et al. Antiviral Res. 77, 56-63 (2008)). […] Selectivity index (S.I.) was calculated as CC50/EC90 for HBV assays and CC50/EC50 for HCV assays.

[2] = Primary HCV replicon assay, cytotoxicity (neutral red dye uptake); conditions: human
Experimental: as §1, §2

[3] = tested on: HCV replicon cell line, AVA5; experiment: as above; conditions: primary assay; neutral red dye uptake after 3 days
Experimental: as §1, §2

[4] = tested on: HCV replicon cell line, AVA5 (sub-genomic CON1, genotype 1b); experiment: Secondary HCV replicon assay, genotype 1B, antiviral activity; assay type: cell-based
Experimental: as §1, §2

[5] = Secondary HCV replicon assay, genotype 1B, cytotoxicity (neutral red dye uptake); conditions: human
Experimental: as §1, §2

Huh 7.5 cells = experiment: Cytotoxicity in the infectious genotype 2a cell culture assay; assay type: cell-based
Experimental: (§3) Genotype 2a antiviral assays were conducted as previously described [Lindenbach, B. D.; Rice, C. M. et al. Science, 309, 623-626 (2005)]. […] Cell viability was determined using the Calcein assay kit (Biotium, Inc. Hayward, Calif., USA). The alternate method for measuring cell cytotoxicity was via the Guava Technologies ViaCount assay (Millipore) The ViaCount Assay provides rapid and reliable determinations of viability and total cell count. It distinguishes viable and non-viable cells based on differential permeabilities of two DNA-binding dyes in the Guava ViaCount® Reagent. The nuclear dye stains only nucleated cells, while the viability dye brightly stains dying cells. This combination of dyes enables the Guava ViaCount Assay to distinguish viable, apoptotic, and dead cells. Debris is excluded from results based on negative staining with the nuclear dye.

[6] = Secondary HCV replicon assay, genotype 1A, cytotoxicity (neutral red dye uptake); conditions: human
Experimental: as §1, §2

[7] = tested on: HCV replicon, H/FL-Neo, a genotype 1a full length construct; experiment: Secondary HCV replicon assay, genotype 1A, antiviral activity; assay type: cell-based
Experimental: as §1, §2

J6/JFH-1 HCV = experiment: Infectious genotype 2a cell culture assay (HCV replication by RT-PCR); assay type: cell-based; conditions: for efficacy with regards to HCV replication: Huh7.5/JFH-1 HCV cell culture system; for inhibition of J6/JFH-1 HCV replication: 1 μM test concentration
Experimental: as §3
HCV replication levels were determined by RT-PCR on RNA from cell culture supernatants. J6-infected Huh 7.5 cells were seeded in 12-well plates at a density of 2.0E^5 cells/well in 1.5 mL of DMEM supplemented with 10% FBS and 1% Pen/Strep. […] A positive control of IFN-α at concentrations of 10 IU/mL and 50 IU/mL, negative control wells containing mock incubations of DMEM with 1 uL and 10 uL (the same volume of the molecular compounds at 1 uM and 10 uM, respectively) of DMSO was included to rule out nonspecific effects of DMSO on the cells, and J6-infected with only DMEM were used as negative controls. A final control group consisted of un-infected Huh 7.5 cells, plated at the same time and density as the J6-infected cells on a separate plate. 48 hours and 120 hours after incubation with thiazolides, the media was collected and frozen, cells were washed 2× with PBS, and lysed in 500 uL of lysis buffer per well. Following lysis, RNA was extracted from the cells using the RNAqueous-4PCR Kit from Ambion, and the RNA concentration determined using the NanoDrop® machine. Reverse-transcription reactions produced 1.5 μg of cDNA per sample, which was then used for rt-PCR to quantify the HCV viral load in each sample. Analysis of the rt-PCR results generated the fold increases and decreases of the HCV viral load in comparison to untreated J6 cells.

[8] = cited from earlier work
[9] = tested on: HCV replicon cell line, AVA5; experiment: Secondary HCV replicon assay, genotype 1B, cytotoxicity (neutral red dye uptake); conditions: secondary assay, genotype 1B; neutral red dye uptake
Experimental: as §1, §2

[10] = tested on: Huh7 cells containing HCV replicon H/FL-Neo; experiment: Secondary HCV replicon assay, genotype 1A, cytotoxicity (neutral red dye uptake); conditions: secondary assay, genotype 1A; neutral red dye uptake
Experimental: as §1, §2

cellular esterases = experiment: Metabolic stability of acetate prodrugs under the cell assay conditions; assay type: in vitro ADME
cytochrome P450 enzymes = conditions: cited from earlier work
[11] = Hepatitis C virus, Ava5, primary assay, 2-fold depression of intracellular HCV RNA, read-out: EC50
[12] = Hepatitis C virus, Ava5, primary assay, 10-fold depression of intracellular HCV RNA, read-out: EC90
[13] = primary assay, 2-fold depression of intracellular HCV RNA, read-out: EC50
[14] = primary assay, 10-fold depression of intracellular HCV RNA, read-out: EC90

CC(=O)Oc1ccccc1C(=O)Nc1nc([S+](C)[O-])cs1 (stereo not drawn) [Compound 1, 2-(4-(methylsulfinyl)thiazol-2-ylcarbamoyl)phenyl acetate]
EC50 ([1]; Hepatitis C virus, Ava5): > 10 µM
EC90 ([1]; Hepatitis C virus, Ava5): > 10 µM
CC50 at 3 days [2]: > 100 µM

C[S+]([O-])c1csc(NC(=O)c2ccccc2O)n1 (stereo not drawn) [Compound 2, 2-hydroxy-N-(4-(methylsulfinyl)thiazol-2-yl)benzamide]
EC50 [1, 11]: 2 µM
EC90 [1, 12]: 4.6 µM
CC50 [3]: 63 µM
EC50 ([4]; Hepatitis C virus, Ava5): 2.2 µM
EC90 ([4]; Hepatitis C virus, Ava5): 6.1 µM
CC50 at 3 days [5]: > 100 µM
cytotoxic effect in Huh 7.5 cells (Huh 7.5 cells): Neither of these compounds showed a cytotoxic effect
cytotoxic effect in Huh 7.5 cells (Huh 7.5 cells; listed as analog 2): without being cytotoxic
CC50 at 3 days [6]: > 100 µM
EC50 ([7]; Hepatitis C virus): 2.8 µM
EC90 ([7]; Hepatitis C virus): > 5 µM
efficacy with regards to HCV replication (J6/JFH-1 HCV): demonstrated efficacy
inhibition of J6/JFH-1 HCV replication (J6/JFH-1 HCV; genotype G2a): shown to inhibit J6/JFH-1HCV replication
relative potency, % of NTZ (J6/JFH-1 HCV; genotype G2a, at 0.1 μM): 88 % of NTZ
relative activity, % of NTZ (J6/JFH-1 HCV; genotype G2a, at 1 μM): 95 % of NTZ

CC(=O)Oc1ccccc1C(=O)Nc1ncc([N+](=O)[O-])s1 [NTZ, Nitazoxanide]
EC50 [1, 11]: 0.21 µM
EC90 [1, 12]: 0.98 µM
detection in plasma ([8]; after oral 500 mg NTZ tablet): not detected
CC50 [3]: 31 µM
EC50 ([4]; Hepatitis C virus, Ava5): 0.25 µM
EC90 ([4]; Hepatitis C virus, Ava5): 0.95 µM
CC50 [9]: 35 µM
cytotoxic effect in Huh 7.5 cells (Huh 7.5 cells): without being cytotoxic; also recorded: Neither of these compounds showed a cytotoxic effect
CC50 [10]: 49 µM
EC50 ([7]; Hepatitis C virus): 0.33 µM
EC90 ([7]; Hepatitis C virus): 1.1 µM
efficacy with regards to HCV replication (J6/JFH-1 HCV): demonstrated efficacy
inhibition of J6/JFH-1 HCV replication (J6/JFH-1 HCV; genotype G2a): shown to inhibit J6/JFH-1HCV replication

CS(=O)(=O)c1cnc(NC(=O)c2ccccc2O)s1 [RM4863]
EC50 [1, 13]: 1.5 µM
EC90 [1, 14]: 5.2 µM
CC50 [3]: 43 µM
EC50 [4]: 0.9 µM
EC90 [4]: 8.8 µM
CC50 [9]: > 10 µM
CC50 [10]: > 10 µM
EC50 [7]: 0.8 µM
EC90 [7]: 3.4 µM

CC(=O)Oc1ccccc1C(=O)Nc1ncc(S(C)(=O)=O)s1 [RM4864]
metabolic stability (hydrolysis to the parent phenolic drug) (cellular esterases): metabolically stable
EC50 [1, 13]: > 10 µM
EC90 [1, 14]: > 10 µM
CC50 [3]: 20 µM

O=C(Nc1ncc([N+](=O)[O-])s1)c1ccccc1O [TIZ, Tizoxanide]
EC50 [1, 11]: 0.15 µM
EC90 [1, 12]: 0.81 µM
part of an oral dose excreted in feces as TIZ ([8]; oral dose of NTZ, feces): Approximately two-thirds
Maximum serum concentrations of TIZ ([8]; oral, one 500 mg NTZ tablet (Alinia) with food): approximately 10 μg/mL and ~37 μM
elimination half-life of TIZ from plasma ([8]; plasma): approximately 1.5 hours
CC50 [3]: 15 µM
EC50 ([4]; Hepatitis C virus, Ava5): 0.19 µM
EC90 ([4]; Hepatitis C virus, Ava5): 0.92 µM
CC50 [9]: 28 µM
inhibition of cytochrome P450 enzymes (cytochrome P450 enzymes): does not inhibit
CC50 [10]: 27 µM
EC50 ([7]; Hepatitis C virus): 0.23 µM
EC90 ([7]; Hepatitis C virus): 1 µM
